{
  "source": "patent US6518450B2",
  "about": "“Guaiacoxypropanolamines with alpha/beta adrenergic blocking activity” (priority 1997, dated 2003)",
  "key": {"[1]": {"test_system": "β1-adrenoceptor", "conditions": "versus isoproterenol, contraction of left atrium; Schild plot regression; six to eight experiments", "procedure": "The stimulating frequency is 0.5 Hz, resting tension is 0.5 grams. Upon balancing(approximately 50 minutes) the following experiment is conducted;\n(a) Completion of the cumulative concentration-response curves, which is similar to the experimenting methods use on the same detached right auricle.\n(b) The calculation of pA2 value is same as the calculation method used in the experiment of the detached right auricle."}, "[2]": {"test_system": "pentobarbital-anesthetized normotensive rats", "conditions": "mean ± S.E. (n=6)", "procedure": "A male Wistar Strain, weighing 300˜450 grams, is administered with 40 mg/kg of pentobarbital sodium via hypodermic syringe for anesthesia before implementing trachea dissection and inserting respiratory tube to ensure the animal maintains smooth breath during operation, while also facilitating emergency rescue. The tube insertion is done with a polyethylene tube (PE50), with inner diameter of […] and outer diameter of 0.97 mm, on the femoral vein to facilitate administering medication during the experiment; a 3-way stopcock is used by connecting one end to the medicated bottle, while the other end is connected to the saline solution bottle, thus some saline solution can be injected right after administering the medication to prevent the medication from lingering in the polyethylene tube (PE50) that may affect the accuracy of the experiment. The left artery is also inserted with the polyethylene tube(PE50) by using the same 3-way stopcock with one end connected to heparin solution as the polyethylene tube (PE50) is equipped with a valve to clear any blockage in the path; the other end is connected to disposable diaphgram dome (TA1019), which is then connected to the data converter, and through an amplifier, and then finally through the recorder to record the medication's impact on the male Wistar Strain's blood pressure and heartbeat. The Wistar Strain is given different dosages of test medication in 1.0, 1.5, 3.0 mg/kg respectively through intravenous injection to examine the medication's effects on heartbeat and blood pressure."}, "[3]": {"test_system": "isolated guinea pig thoracic aorta", "conditions": "10 μM L-phenylephrine contraction, mean ± S.E. (n=6)", "description": "A 300-450 gram guinea pig is obtained, and forcefully hit at the head, and blood drained from the artery at the neck to quickly retrieve the main chest artery, which is placed in chilled Kreb solution and the fatty tissue clung to the vicinity of the blood vein is carefully removed, and then the main chest artery is trimmed to a circular shape of approximately 5 mm. Two S-shaped platinum threads are used to stabilize the top and bottom of the main artery before placing it in a 10-milliliter organ tank with 95% oxygen and 5% carbon dioxide mixed gas. One end is connected to the bottom of the organ tank, and the other end connected to the force transducer, and a recorder is used to record the isometric contraction. The specimen is given one gram of tension, and after balancing for 60 minutes, 10 μM of phenylephrine is prescribed to test the vivacity of the main chest artery. Upon balancing and the phenylephrine rinsed off, 10 μM of phenylephrine is used again to achieve the maximum contraction. And upon balancing, different concentration of synthetic testing compounds are used, 10^−5 M, 10^−6 M, or 10^−7 M, to observe the suppressing effects resulted from different concentrations of synthetic testing compounds."}, "[4]": {"molecular_target": "T1, β2-adrenoceptor (Cavia porcellus, UniProt Q8K4Z4)", "T1 construct": "from tissue; host or cells: isolated guinea pig trachea (spiral strips, reserpine-pretreated animal)", "T1 sequence (Q8K4Z4 whole entry)": "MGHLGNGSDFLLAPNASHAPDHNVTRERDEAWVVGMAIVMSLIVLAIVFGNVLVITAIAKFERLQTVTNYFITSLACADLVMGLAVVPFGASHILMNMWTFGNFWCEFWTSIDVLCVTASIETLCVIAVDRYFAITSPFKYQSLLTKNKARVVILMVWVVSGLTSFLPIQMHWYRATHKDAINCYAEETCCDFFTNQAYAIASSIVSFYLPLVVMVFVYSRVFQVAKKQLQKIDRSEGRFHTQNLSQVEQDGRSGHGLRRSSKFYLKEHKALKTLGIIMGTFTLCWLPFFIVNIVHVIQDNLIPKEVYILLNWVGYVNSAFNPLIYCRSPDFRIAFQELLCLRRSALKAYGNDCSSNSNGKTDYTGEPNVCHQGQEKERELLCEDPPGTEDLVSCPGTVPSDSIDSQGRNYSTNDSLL", "test": "β2 adrenergic blockade against isoproterenol, isolated guinea pig respiratory tract (Schild plot)", "conditions": "versus isoproterenol relaxation of detached respiratory tract; Schild plot regression", "procedure": "300-450 gram guinea pig is obtained, and 5 mg/kg reserpine is injected on the belly 18˜24 hours prior to the experiment. Upon hitting the guinea pig into comatose, the artery at the neck is cut and the blood released, and the chest is immediately cut open and the respiratory tract (approximately 4 centimeters long) is taken along the neck and placed in a cultivation dish containing Krems solution at room temperature and connected to mixed gas of 95% oxygen and 5% carbon dioxide. The surrounding tissues are carefully removed, then the respiratory tract is cut to spiral shape that contains 3 to 4 bone coils at each turn, and then cut in two halves, with the two sides clamped by the frog-heart tweezer; one end is stabilized at the bottom and placed in the organ rinser filled with 20 ml of Krebs solution with mixed gas and the temperature maintained at 32° C.; the other side is connected to the force transducer, and even-length isometric contraction is recorded through the Coulbourn At-High-Speed Videograph. The sample is given 2 grams of tension, and upon balancing, the following experiment is conducted.\nThe respiratory tract used in the experiment is first balanced (approximately one hour) to derive a reflex tension, and then for each half of the respiratory tract, cumulative concentration-response curve for the isoproterenol is completed twice. In the first curve, no synthetic testing compound is added, and is used as the control unit; in the second curve, the synthetic compound first added for an hour before implementing the cumulative concentration-response curve, which is the experimental unit."}, "[5]": {"test_system": "β1-adrenoceptor", "conditions": "versus isoproterenol, pulsating rate of right atrium; Schild plot regression; six to eight experiments", "description": "A 300˜450 gram guinea pig is obtained and hit forcefully at the head to put it into comatose, the artery at the neck is cut to release the blood, then the chest is immediately cut open, and the heart quickly retrieved and placed in Krebs solution that is connected to mixed gas(95% oxygen, 5% carbon dioxide), and the left, right auricles separated. The right auricle, which is pulsating in reflex action, is pinned down on both ends by a frog-heart tweezer, and one end stabilized at the bottom and placed in an organ rinser filled with 10 milliliter of Krebs solution with the mixed gas, and the temperature maintained at 32.5[…]; the other end is connected to the force transducer, and the isometric contractions and pulsating frequency are recorded through the Coulbourn At-High-Speed Videograph. The specimen is given tension between 100-150 milligrams, and upon balancing, the following experiment is conducted:\nIn order to evaluate the degree of vivacity of the β-blockade on the synthetic compounds, for each detached auricle in reflex pulsation, upon balancing(approximately 60 minutes), the cumulative-concentration curve of the β-agonist isoproterenol is completed twice separately. The experiment is designed as follows: <1>The first curve indicates direct application of isoproterenol from low concentration to high using 0.5 log unit to gradually increase until it reaches the maximum reaction; this is the control unit. <2>the second curve is the experimental unit. Different concentrations of synthetic testing compounds(10^−7 M, 10^−6 M, or 10^−5 M), from low concentration to high, are given 30 minutes to react before isoproterenol is used to complete the cumulative prescription. The EC50 value is obtained from observation of the suppressing effects generated from different concentrations of synthetic testing compounds.\nAccording to the method used by Arunlakshana and Schild in 1959, the corresponding values of the synthetic testing compounds are used as the horizontal coordinate, and the corresponding values on the first derivative of the dose ratio are used as the vertical coordination, the values obtains are graphed and linear regression is implemented to obtain a regressed straight-line horizontal coordinate's extracted distance value, which is the pA2 value for this particular synthetic testing compound."}, "[6]": {"test_system": "α-adrenoceptor", "conditions": "versus L-phenylephrine contraction of detached chest artery; Schild plot regression", "procedure": "Same as the blood vein relaxation experiment, detached primary artery taken from the guinea pig is given 1 gram of tension, and upon balancing for 60 minutes, L-phenylephrine is administered directly from low concentration to high using 0.5 log unit to gradually increase until the maximum reaction is reached, and this act as the control unit. Then different concentrations of the synthetic testing compound, 10^−7 M, 10^−6 M, or 10^−5 M, are used, and upon 30 minutes of reaction, L-phenylephrine is used again to complete the cumulative dose. The EC50 value may be obtained from observation of the suppressing effects caused by different concentrations of the synthetic testing compound.\nIt is same as the calculation method used in the experiment of the detached right auricle."}},
  "note": "Read-outs that look alike come from different tables or passages of the source. Marks after values point to notes of the source that are not given here.",
  "data": [
    {"compound": "CCCCCCCCC(=O)NCc1ccc(OCC(O)CNCCOc2ccccc2OC)c(OC)c1", "note": "(stereo not shown) [Compound 3]", "values": [
      {"measurement": "PA2 value β1 left atrium", "setting": "[1]", "result": 7.61},
      {"measurement": "Blood pressure change", "setting": "[2]; 1 mg/kg intravenous", "result": "−32.6 ± 5.5", "unit": "mmHg"},
      {"measurement": "Blood pressure change", "setting": "[2]; 1.5 mg/kg intravenous", "result": "−41.7 ± 4.0", "unit": "mmHg"},
      {"measurement": "Blood pressure change", "setting": "[2]; 3 mg/kg intravenous", "result": "−52.0 ± 8.0", "unit": "mmHg"},
      {"measurement": "percentage of relaxation in comparison with the basal value", "setting": "[3]; 10^−5 M", "result": "−40.7 ± 8.4", "unit": "%"},
      {"measurement": "percentage of relaxation in comparison with the basal value", "setting": "[3]; 10^−6 M", "result": "−34.5 ± 4.2", "unit": "%"},
      {"measurement": "PA2 value β2", "setting": "[4]", "result": 6.81},
      {"measurement": "PA2 value β1 right atrium", "setting": "[5]", "result": 7.80},
      {"measurement": "PA2 value α", "setting": "[6]", "result": 7.12}
    ]},
    {"compound": "CC=Cc1ccc(OCC(O)CNCCOc2ccccc2OC)c(OC)c1", "note": "(stereo not shown) [Compound 4, 1-[(4-propenyl-2-methoxy)-phenoxy]-3-[(2-methoxyphenoxyethyl)amino]-propanol]", "values": [
      {"measurement": "PA2 value β1 left atrium", "setting": "[1]", "result": 7.89},
      {"measurement": "Blood pressure change", "setting": "[2]; 1 mg/kg intravenous", "result": "−24.9 ± 3.2", "unit": "mmHg"},
      {"measurement": "Blood pressure change", "setting": "[2]; 1.5 mg/kg intravenous", "result": "−29.5 ± 5.1", "unit": "mmHg"},
      {"measurement": "Blood pressure change", "setting": "[2]; 3 mg/kg intravenous", "result": "−36.4 ± 7.2", "unit": "mmHg"},
      {"measurement": "percentage of relaxation in comparison with the basal value", "setting": "[3]; 10^−5 M", "result": "−30.1 ± 3.6", "unit": "%"},
      {"measurement": "percentage of relaxation in comparison with the basal value", "setting": "[3]; 10^−6 M", "result": "−23.4 ± 3.7", "unit": "%"},
      {"measurement": "PA2 value β2", "setting": "[4]", "result": 6.13},
      {"measurement": "PA2 value β1 right atrium", "setting": "[5]", "result": 7.63},
      {"measurement": "PA2 value α", "setting": "[6]", "result": 7.20}
    ]},
    {"compound": "C=CCc1ccc(OCC(O)CNCCOc2ccccc2OC)c(OC)c1", "note": "(stereo not shown) [Compound 1, 1-[(4-allyl-2-methoxy)phenoxy}-3-[(2-methoxyphenoxyethyl)amino}-propanol]", "values": [
      {"measurement": "PA2 value β1 left atrium", "setting": "[1]", "result": 7.95},
      {"measurement": "Blood pressure change", "setting": "[2]; 1 mg/kg intravenous", "result": "−23.1 ± 4.5", "unit": "mmHg"},
      {"measurement": "Blood pressure change", "setting": "[2]; 1.5 mg/kg intravenous", "result": "−30.1 ± 3.6", "unit": "mmHg"},
      {"measurement": "Blood pressure change", "setting": "[2]; 3 mg/kg intravenous", "result": "−38.1 ± 5.1", "unit": "mmHg"},
      {"measurement": "percentage of relaxation in comparison with the basal value", "setting": "[3]; 10^−4 M", "result": "−62.8 ± 8.7^a %"},
      {"measurement": "percentage of relaxation in comparison with the basal value", "setting": "[3]; 10^−5 M", "result": "−51.7 ± 6.8", "unit": "%"},
      {"measurement": "percentage of relaxation in comparison with the basal value", "setting": "[3]; 10^−6 M", "result": "−39.7 ± 9.1", "unit": "%"},
      {"measurement": "PA2 value β2", "setting": "[4]", "result": 6.59},
      {"measurement": "PA2 value β1 right atrium", "setting": "[5]", "result": 7.83},
      {"measurement": "PA2 value α", "setting": "[6]", "result": 8.12}
    ]},
    {"compound": "CCOC(=O)C=Cc1ccc(OCC(O)CNCCOc2ccccc2OC)c(OC)c1", "note": "(stereo not shown) [Compound 2, 1-[(4-propenoic acid ethyl ester-2-methoxy)phenoxy]-3-[(2-methoxyphenoxyethyl)amino]-propanol]", "values": [
      {"measurement": "PA2 value β1 left atrium", "setting": "[1]", "result": 8.16},
      {"measurement": "Blood pressure change", "setting": "[2]; 1 mg/kg intravenous", "result": "−37.5 ± 5.2", "unit": "mmHg"},
      {"measurement": "Blood pressure change", "setting": "[2]; 1.5 mg/kg intravenous", "result": "−44.2 ± 8.0", "unit": "mmHg"},
      {"measurement": "Blood pressure change", "setting": "[2]; 3 mg/kg intravenous", "result": "−52.4 ± 4.5", "unit": "mmHg"},
      {"measurement": "percentage of relaxation in comparison with the basal value", "setting": "[3]; 10^−5 M", "result": "−42.1 ± 9.1", "unit": "%"},
      {"measurement": "percentage of relaxation in comparison with the basal value", "setting": "[3]; 10^−6 M", "result": "−35.9 ± 7.9", "unit": "%"},
      {"measurement": "PA2 value β2", "setting": "[4]", "result": 7.05},
      {"measurement": "PA2 value β1 right atrium", "setting": "[5]", "result": 8.02},
      {"measurement": "PA2 value α", "setting": "[6]", "result": 7.95}
    ]}
  ]
}
